We go through three molecules from patent US20210260069A1, “IRE1a INHIBITOR IN COMBINATION WITH CANCER [sequence] AGENT FOR CANCER TREATMENT” (Fosun Orinove PharmaTech, Inc., priority 2018, published 2021).

The nature of series [1]: Oral bioavailability test, mouse. The conditions noted are these: in vivo, 5 mg/kg dose. The method, then: (§1) All PK experiments are standard tests that performed in either WuXi PharmaTech or Charels River Laboratory. 4315 and 4485 (Orin 1001) were dosed PO as a suspension in 1% microcellulose (Sigma) and 50% Sucrouse (Sigma).
Another series has as its target T1, IRE1α (Mus musculus, UniProt Q9EQY0).
T1 construct: from tissue; host or cells: liver of BALB/c mice (in vivo)
Nature of the series: Liver PD screening assay: XBP-1 splicing analysis of liver after tunicamycin (Example 25). Type of series: in vivo, BALB/c mice. On the procedure: Example 25 was related to comparative PD/PK data of Orin 1001 VS compound 4315, as its structure shown below, which is an earlier lead of this series of compounds. Tunicamycin was used herein to activate IRE1, then Orin 1001 (also called 4485) or 4315 were given to inhibit the activating effect. […] Each gel panel represents one mouse liver sample as in the figure.
BALB/c mice were injected intraperitoneally with 100 microliters at an equivalent dose of 1 mg/kg tunicamycin solution. Two hours after tunicamycin injection, mice were dosed with compound of interest either PO or IV. Following 2 hours for PO delivery of compound, mice were euthanized according to IACUC protocols using CO2 from a […] source. A 1 cm^3 fragment of the liver for homogenization and extraction of the RNA were collected for further analysis. Total RNA is harvested from cells or tissue using TRIzol according to the manufacturer's procedures. After ethanol precipitation and resuspension of the RNA, RiboGreen (Invitrogen) is used to quantify the yield and normalize the RNA concentration in the source tube containing isolated RNA. RT-PCR is performed by Oligo(dT) priming, and SuperScript II (Invitrogen) transcription using the Amplitaq Gold Kit (Applied Biosystems) according to the manufacturer's protocols. Primers for human XBP-1 are 5_-[…]-3_ (forward, Seq ID No. 8) and 5_-[…]-3_ (reverse, Seq ID No. 9), and for mouse are 5_-[…]-3_ (forward, Seq ID No. 10) and 5_-[…]-3 (Seq ID No. 11). All DNA oligos were purchased from IDT DNA Technologies. PCR is run on a Bio-Rad PTC-100 96-well thermocycler with heating at 94° C. for 30 s, annealing at 58° C. for 30 s, and polymerizing at 72° C. for 30 s for 35 cycles. Reactions are run on 4% precast NuSieve gels from Cambrex and visualized by ethidium bromide staining and UV excitation.
as §1

The nature of series [2]: Oral bioavailability test, rat. The conditions noted are these: in vivo, 10 mg/kg dose. On the procedure: as §1
The nature of series [3]: Oral bioavailability test, dog. The conditions noted are these: in vivo, 10 mg/kg dose. The method, then: as §1
Series [4] concerns human ovarian carcinoma A2780 tumor cells. As to the kind of experiment: A2780 ovarian carcinoma xenograft (Example 18). Type of series: in vivo, female NCr nu/nu mice. The settings on record: Orin 1001 300 mg/kg/day oral 28 days; paclitaxel 15 mg/kg iv weekly; endpoint 2000 mm^3 or Day 60. The method, then: Orin 1001 was administered by oral gavage in a xenograft mouse model using female NCr nu/nu mice injected subcutaneously with human ovarian carcinoma A2780 tumor cells. Animals were assigned to 4 groups (n=6/group); Vehicle control administered by oral gavage for 28 days, Orin 1001 administered via oral gavage at 300 mg/kg/day for 28 consecutive days, paclitaxel administered weekly by iv at 15 mg/kg, or Orin 1001 administered in combination with paclitaxel.
The percent tumor growth delay was calculated using the following equation: TGD (%)=[T-C/C]×100, where T-C is the difference in time to tumor endpoint from Treated (T) and Control (C).

For series [5], the system named is human breast adenocarcinoma MDA-MB231 tumor cells. Type of series: in vivo. The settings on record: Orin 1001 300 mg/kg where given; paclitaxel 10 mg/kg iv weekly; n=10/group. The method, then: Orin 1001 was administered by oral gavage in combination with paclitaxel in a xenograft mouse model using female NCr nu/nu mice (n=10 in each group) injected subcutaneously with human breast adenocarcinoma MDA-MB231 tumor cells. To evaluate the effect of Orin 1001 in combination with paclitaxel, Orin 1001 was administered via oral gavage at 75, 150 or 300 mg/kg/day in combination with paclitaxel at 10 mg/kg iv, weekly (n=10/group) for up to 60 days.

Series [6] relates to human glioblastoma U-87 MG tumor cells. As to the kind of experiment: U-87 MG glioblastoma xenograft (Example 19). Type of series: in vivo, female NCr nu/nu mice. On the procedure: Orin 1001 was administered by oral gavage in a xenograft mouse model using female NCr nu/nu mice injected subcutaneously with human glioblastoma U-87 MG tumor cells, a glioblastoma multiforme (GBM) cell line. Animals were assigned to 4 groups (n=6/group); Vehicle control administered by oral gavage for 28 days, Orin 1001 administered via oral gavage at 300 mg/kg/day for 28 consecutive days, paclitaxel administered weekly by iv at 15 mg/kg, or Orin 1001 administered in combination with paclitaxel.
The percent tumor growth delay was calculated using the following equation: TGD (%)=[T-C/C]×100; where T-C is the difference in time to tumor endpoint from Treated (T) and Control (C).
The time to tumor endpoint (TTE) for each animal was further calculated using the following equation: TTE (days)=log 10 (endpoint volume, mm^3)-b/m, where b is the intercept and m is the slope of the line obtained by linear regression of the log-transformed tumor growth data set.

A further series has as its system XBP1s. Nature of the series: Determination of XBP1s level induced by various compounds (RT-qPCR splicing assay), several cell lines. Type of series: cell-based, human. The settings on record: in a time, cell or concentration dependent manner. The method, then:
This method applies to any mammalian cell line but was typically applied to human MM1s myeloma cells for EC50 and RPMI […] plasmacytoma cells for confirmation of selected compounds. Briefly, cells were grown in standard conditions and spread into 96 well tissue culture plates. Cells were treated with compounds with indicated concentration using serial dilutions. DTT (dithiothreitol) or compounds were added at the same time and cells were harvested after indicated hour's treatment. Cells treated with DTT alone were used as 100% XBP1s positive controls and cell left untreated were used as base line XBP1s level.
(§2) Splicing Assay: Total RNA was isolated from cells treated with compounds using Applied Biosystems RNAqueous kit. 1 μg of total RNA was reverse transcribed using Oligo dt (12-18) (Invitrogen). The cDNA was then amplified at 95° C. for 8 min and 30 sec, then 40 cycles at 95° C. for 15 sec and 63° C. for 1 min. Samples were run against a purified standard curve for both spliced and unspliced XBP1, and further normalized to internal house-keeping gene GAPDH.

In the next series the test system is RPMI 8226 cells. Nature of the series: XBP1s level induced in RPMI 8226 cells. Type of series: cell-based, human. The method, then:
Briefly, cells were grown in standard conditions and spread into 96 well tissue culture plates. Cells were treated with compounds with indicated concentration using serial dilutions. DTT (dithiothreitol) or compounds were added at the same time and cells were harvested after indicated hour's treatment. Cells treated with DTT alone were used as 100% XBP1s positive controls and cell left untreated were used as base line XBP1s level.
as §2
The same methods were used as above for Lestaurtinib.

In a further series the test system is RPMI 8226 tumor cells. Nature of the series: Intratumoral XBP-1 spliced effect in Velcade treated RPMI xenografts. Type of series: in vivo, Nude mice. The conditions noted are these: Velcade 0.8 mg/kg IV on day 21 and day 24, RPMI 8226 xenograft. The method, then:
The mice were treated again on the 24th day with Velcade®. On Day 27, the mice were treated with Orin 1001 at 30 mg/kg PO, four hours later the mice were sacrificed as in Example 25, and tumor tissues were isolated. In a similar way as described for the liver PD test in Example 25, RNA extraction and RT-PCR analysis gave the results as shown FIG. 13.
BALB/c mice were injected intraperitoneally with 100 microliters at an equivalent dose of 1 mg/kg tunicamycin solution. Two hours after tunicamycin injection, mice were dosed with compound of interest either PO or IV. Following 2 hours for PO delivery of compound, mice were euthanized according to IACUC protocols using CO2 from a […] source. A 1 cm^3 fragment of the liver for homogenization and extraction of the RNA were collected for further analysis. Total RNA is harvested from cells or tissue using TRIzol according to the manufacturer's procedures. After ethanol precipitation and resuspension of the RNA, RiboGreen (Invitrogen) is used to quantify the yield and normalize the RNA concentration in the source tube containing isolated RNA. RT-PCR is performed by Oligo(dT) priming, and SuperScript II (Invitrogen) transcription using the Amplitaq Gold Kit (Applied Biosystems) according to the manufacturer's protocols. […]

The mark [7] stands for this setting: Orin 1001 300 mg/kg/day oral 28 days, paclitaxel 15 mg/kg iv weekly, endpoint 2000 mm^3 or Day 60.

Like-named read-outs stand apart in the source and are kept apart here.

T1 sequence (Q9EQY0 21-977): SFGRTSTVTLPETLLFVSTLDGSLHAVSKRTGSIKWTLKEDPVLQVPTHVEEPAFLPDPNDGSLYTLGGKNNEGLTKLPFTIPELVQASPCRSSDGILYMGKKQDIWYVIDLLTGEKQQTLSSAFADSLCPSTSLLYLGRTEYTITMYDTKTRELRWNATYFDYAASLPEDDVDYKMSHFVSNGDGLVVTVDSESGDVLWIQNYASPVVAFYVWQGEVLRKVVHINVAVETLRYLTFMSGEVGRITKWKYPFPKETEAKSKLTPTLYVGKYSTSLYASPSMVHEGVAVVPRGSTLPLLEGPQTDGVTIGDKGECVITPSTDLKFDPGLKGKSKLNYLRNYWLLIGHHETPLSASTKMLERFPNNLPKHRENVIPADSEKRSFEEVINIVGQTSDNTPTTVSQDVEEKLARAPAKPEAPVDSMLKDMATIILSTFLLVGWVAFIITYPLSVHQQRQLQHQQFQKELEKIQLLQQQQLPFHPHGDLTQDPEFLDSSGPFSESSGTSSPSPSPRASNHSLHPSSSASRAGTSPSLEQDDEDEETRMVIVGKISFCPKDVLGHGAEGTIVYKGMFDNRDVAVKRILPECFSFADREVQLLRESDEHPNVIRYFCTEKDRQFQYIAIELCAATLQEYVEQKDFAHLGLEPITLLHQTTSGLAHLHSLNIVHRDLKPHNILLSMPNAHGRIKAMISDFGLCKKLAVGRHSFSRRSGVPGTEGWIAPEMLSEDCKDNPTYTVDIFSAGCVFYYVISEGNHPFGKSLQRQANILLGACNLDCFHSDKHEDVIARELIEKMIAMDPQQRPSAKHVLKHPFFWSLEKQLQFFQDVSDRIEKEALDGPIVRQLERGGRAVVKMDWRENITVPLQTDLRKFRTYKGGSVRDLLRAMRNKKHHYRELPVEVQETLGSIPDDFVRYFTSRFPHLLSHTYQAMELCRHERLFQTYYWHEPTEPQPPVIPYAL

Take `Cc1c(-c2ccc(C(=O)NCCN3CCOCC3)cc2)c(=O)oc2c(C=O)c(O)ccc12` [compound 4315]: the bioavailability in series [1] was found to be 23%; in series [2], 36%; in series [3], 17%. Also, the ED50 is greater than 10 mg/kg at IRE1α (read-out: ED50 (inhibition of XBP-1 splicing in liver), PO, 2 hours after tunicamycin 1 mg/kg ip, liver 2 hours after dosing, FIG. 23) and 50 mg/kg on IRE1α (read-out: ED50 (inhibition of XBP-1 splicing in liver), separate experiment).

Consider `CC(=O)O[C@H]1C(=O)[C@@]2(C)[C@H]([C@H](OC(=O)c3ccccc3)[C@]3(O)C[C@H](OC(=O)[C@H](O)[C@@H](NC(=O)c4ccccc4)c4ccccc4)C(C)=C1C3(C)C)[C@]1(OC(C)=O)CO[C@@H]1C[C@@H]2O` [Paclitaxel], for which the entries for the “percent tumor growth delay (TGD)” value in series [4] and in [6] (setting [7]) were 40% and 17%, respectively. The partial regressions in [5] is listed as 1. In addition, the “time to tumor endpoint (TTE)” value in [6] (setting [7]) is on record as 30.2 days. Besides, the “tumor delay effect over the control” value in series [6] (each agent alone) is on record as “not very significant”. Besides, the “induction of XBP1s” value with XBP1s was “able to induce XBP1s”. The “levels of XBP1s” value in the series on RPMI 8226 cells (1 hour of treatment) is reported as “high levels”; in the series on RPMI 8226 cells (2 hours of treatment) it was “modest levels”; in the series on RPMI 8226 cells (4 hours of treatment) it was “modest levels”.

As to `CC(C)C[C@H](NC(=O)[C@H](Cc1ccccc1)NC(=O)c1cnccn1)B(O)O` [Velcade®, [(1R)-3-methyl-1-[[(2S)-1-oxo-3-phenyl-2-[(pyrazinylcarbonyl)amino]propyl]amino]butyl] boronic acid], the “level of XBP1s in tumor” value in the series on RPMI 8226 tumor cells is listed as “increased the level of XBP1s”.

In general, bioavailability refers to dose-corrected exposure relative to a reference, in per cent. A high value points to good availability.
